Assay results from patent publication US5801263A, “Process for preparing tertiary phosphines containing phosphinate or phosphonate groups, and novel tertiary phosphines containing phosphinate groups” (Hoechst Aktiengesellschaft, priority 1996, dated 1998).
Counter-ions that a name gives are not always drawn.

Legend:
Solubility in water = type: physicochemical; conditions: sodium salt, no temperature printed for this value
Experimental: 100 ml of a 3.7% strength by weight sodium hydrogen carbonate solution (44.1 mmol NaHCO3) are added to 15.0 g (44.1 mmol) of (4-diphenylphosphinophenyl)methylphosphinic acid and the mixture stirred at room temperature until CO2 formation has ended. The aqueous solution is completely evaporated and dried under reduced pressure. 15.6 g (97% of theory) of sodium (4-diphenylphosphinophenyl)methylphosphinate are obtained. Solubility in water: 590 g/l

[1] = in water, at 20° C.; cited from earlier work

| Compound | Solubility in water (Solubility in water) [mg/mL] | water solubility (literature comparison) [1] [mg/mL] |
| --- | --- | --- |
| CP(=O)(O)c1ccc(P(c2ccccc2)c2ccccc2)cc1 [Sodium (4-diphenylphosphinophenyl)methylphosphinate] | 590 |  |
| O=S(=O)(O)c1cccc(P(c2ccccc2)c2ccccc2)c1 [Na[TPPMS], sodium salt of triphenylphosphinemonosulfonate] |  | 80 |
| disodium salt of triphenylphosphinemonophosphonate [Na2 TPPMP] |  | 380 |
